Reference: patent US20190060298A1, “NEW DRUG FOR THE TREATMENT AND/OR PREVENTION OF DEPRESSIVE DISORDERS” (SORBONNE UNIVERSITE, priority 2013, published 2019)
Entries after “also recorded” stand apart in the source; their conditions may differ.

Legend:
Nrf2 [1] = assay: Nrf2 translocation in hippocampal HT22 cells; assay type: cell-based; details: 30 min, quercetin 10 μM; for nuclear Nrf2 translocation: BDNF 100 ng/ml, 7,8-DHF 10 μM
Method: (§1) Hippocampi were homogenized in ice-cold buffer A (10 mM Hepes, 150 mM NaCl, 1 mM EDTA, protease inhibitor cocktail [5 μl/ml] and phosphatase inhibitor cocktail [10 μl/ml]) and Nonidet P-40 (0.5%) was then added. After 10 min on ice, homogenates were centrifuged (1,200×g, 10 min, 4° C.). Supernatants were saved as the cytoplasmic fraction. Pellets were washed in ice-cold buffer A and sedimented by centrifugation at 1,200×g for 10 min at 4° C. Nuclear yield and integrity were checked by Giemsa staining and microscopy. Nuclei were resuspended in ice-cold buffer B (20 mM Hepes, 420 mM NaCl, 1.2 mM MgCl2, 0.2 mM EDTA, 25% glycerol, 0.5 mM DTT, protease inhibitor cocktail [5 μl/ml] and phosphatase inhibitor cocktail [10 μl/ml]). Samples were sonicated (15 s, 4° C.) and vortexed every 5 min for 20 min. The cytoplasmic and nuclear fractions were centrifuged at 20,000×g, for 30 min at 4° C. Supernatants were rapidly frozen in liquid nitrogen and stored at −80° C. A similar protocol was used for cell nuclear and cytosolic extracts.
40 μg of nuclear or cytosolic protein (or 20 μg for cell experiments) was resolved by SDS-polyacrylamide gel electrophoresis in a 12% polyacrylamide gel. The bands were transferred to nitrocellulose or PVDF membranes (Invitrogen, France) for immunoblotting according to standard procedures. We used the following antibody dilutions: 1:250 for rabbit polyclonal antibodies against Nrf2 (Santa Cruz Biotechnology, France), 1:500 for rabbit polyclonal antibodies against Keap1 (Santa Cruz Biotechnology) and 1:5000 for rabbit polyclonal antibodies against aconitase 2 (Gene Tex, France). A dilution of 1:10,000 was used for the fluorescent IRDye® 800CW secondary antibody (ScienceTec, Paris, France). Membranes were also probed with a mouse monoclonal antibody against GAPDH or a mouse monoclonal antibody against beta-actin (dilutions of 1:10,000 and 1:1,000, respectively, Sigma-Aldrich, France) and with the IRDye® 680CW secondary antibody from ScienceTec (1:10,000), to correct for protein loading. Images were acquired with the Odyssey® infrared imaging system (LI-COR Biosciences). Protein bands were quantified with Odyssey® software (version 3.0, LI-COR Biosciences). For SOD1, Prx2 and PrxSO2/SO3 analysis, we used the following antibody dilutions: 1:1000 for rabbit polyclonal antibodies against SOD (Euromedex), 1:2000 for rabbit polyclonal antibodies against PeroxiredoxinSO2/SO3 (Abcam), 1:1000 for rabbit polyclonal antibodies against Peroxiredoxin2 (Abcam). Horseradish peroxidase-conjugated secondary antibodies were used and membranes were developed with the ECL Plus detection reagent (Pierce, Rockford, Ill.). Images were acquired with a digital camera-based imaging system (ChemiDoc, Biorad) and analyzed with Quantity One software (Bio-Rad). […]

Keap1 [2] = assay: Keap1 levels in hippocampal HT22 cells; assay type: cell-based; details: 30 min, BDNF 100 ng/ml or 7,8-DHF 10 μM
Method: as §1, with “A similar protocol was used for cell nuclear and cytosolic extracts.” left out
(§2) 40 μg of nuclear or cytosolic protein (or 20 μg for cell experiments) was resolved by SDS-polyacrylamide gel electrophoresis in a 12% polyacrylamide gel. […] Protein bands were quantified with Odyssey® software (version 3.0, LI-COR Biosciences). […] Images were acquired with a digital camera-based imaging system (ChemiDoc, Biorad) and analyzed with Quantity One software (Bio-Rad). […]

Nrf2 [3] = assay: Superfusion of the hippocampus, Nrf2 levels; parameters: species or system Sprague-Dawley rats; details: 7,8-DHF 10 μM, 1 h; for cytosolic Nrf2 concentration: perfused hippocampi
Method: as §1
40 μg of nuclear or cytosolic protein (or 20 μg for cell experiments) was resolved by SDS-polyacrylamide gel electrophoresis in a 12% polyacrylamide gel. The bands were transferred to nitrocellulose or PVDF membranes (Invitrogen, France) for immunoblotting according to standard procedures. We used the following antibody dilutions: 1:250 for rabbit polyclonal antibodies against Nrf2 (Santa Cruz Biotechnology, France), 1:500 for rabbit polyclonal antibodies against Keap1 (Santa Cruz Biotechnology) and 1:5000 for rabbit polyclonal antibodies against aconitase 2 (Gene Tex, France). A dilution of 1:10,000 was used for the fluorescent IRDye® 800CW secondary antibody (ScienceTec, Paris, France). […] Protein bands were quantified with Odyssey® software (version 3.0, LI-COR Biosciences). […] Images were acquired with a digital camera-based imaging system (ChemiDoc, Biorad) and analyzed with Quantity One software (Bio-Rad). […]

Keap1 [4] = assay: Superfusion of the hippocampus, Keap1 levels; parameters: species or system Sprague-Dawley rats; details: perfused hippocampi of DF and control rats; 7,8-DHF 10 μM, 1 h
Method: as §1, with “A similar protocol was used for cell nuclear and cytosolic extracts.” left out
as §2

[5] = intracerebroventricular administration; cited from earlier work
[6] = test system: patients suffering of bipolar depression; details: cited from earlier work

Molecule: O=c1cc(-c2ccccc2)oc2c(O)c(O)ccc12 [7,8-DHF, 7,8-dihydroxyflavone]
- nuclear Nrf2 translocation (Nrf2 [1]): induced a marked increase; also recorded: produced similar effects on Nrf2
- Keap1 levels (Keap1 [2]): not affected
- nuclear Nrf2 translocation (Nrf2 [3]; perfused hippocampi of defeated (DF, D5) and control rats): induced a marked translocation of Nrf2 to the nuclear compartment; also recorded: induced Nrf2 translocation to the nucleus to the same level in defeated and control animals
- cytosolic Nrf2 concentration (Nrf2 [3]; DF animals (D5)): induced a decrease in cytosolic Nrf2 concentration; also recorded: decrease in cytosolic Nrf2 levels
- cytosolic Nrf2 concentration (Nrf2 [3]; control (C) animals): tendency for this concentration to decrease
- Keap1 concentration (Keap1 [4]): no change in Keap1 concentration
- neuroanatomical alterations (hippocampal CA3 dendritic retraction, increase of amygdala dendritic length) [5]: can prevent neuroanatomical alterations
- occurrence of depressive profile [5]: prevent

Molecule: CC(=O)N[C@@H](CS)C(=O)O [N-acetylcysteine (NAC), N-acetylcysteine]
- depression scores [6]: induced a robust decrement in depression scores

Molecule: O=c1c(O)c(-c2ccc(O)c(O)c2)oc2cc(O)cc(O)c12 [quercetin]
- nuclear Nrf2 translocation (Nrf2 [1]): induces a translocation of Nrf2 to the nucleus
- Nrf2 cytosolic fraction (Nrf2 [1]): decreased

B1: BDNF: brain derived neurotrophic factor, added to HT22 cell medium at 100 ng/ml (protein, UniProt P23560 19-247, looked up)
Neurotrophic factor BDNF …: APMKEANIRGQGGLAYPGVRTHGTLESVNGPKAGSRGLTSLADTFEHVIEELLDEDQKVRPNEENNKDADLYTSRVMLSSQVPLEPPLLFLLEEYKNYLDAANMSMRVRRHSDPARRGELSVCDSISEWVTAADKKTAVDMSGGTVTVLEKVPVSKGQLKQYFYETKCNPMGYTKEGCRGIDKRHWNSQCRTTQSYVRALTMDSKKRIGWRFIRIDTSCVCTLTIKRGR
- nuclear Nrf2 translocation (Nrf2 [1]): induced a marked increase; also recorded: produced similar effects on Nrf2
- Keap1 levels (Keap1 [2]): not affected
